Patent US20160022872A1, “CELL-BASED COMPOSITIONS, CELL-BASED BANDAGE DEVICES AND SYSTEMS AND METHODS OF TREATMENT THEREWITH” (UNIVERSITY OF PITTSBURGH-OF THE COMMONWEALTH SYSTEM OF …, priority 2013, published 2016)
“Also recorded” adds a separate entry of the source. Where two headings read alike, the source gives them in different places.

Key:
[1] = tested on: imhMSC and prhMSC; conditions: for toxic effect on MSC (caspase3 activation without FasL): MSC on Collagen I and TNC, no FasL; for effect on survival advantage of TNC and Collagen I in the presence of FasL: prhMSC on Collagen I and TNC, inhibitor 30 minutes prior to and during 8 hours FasL; for cell death / caspase3 activation (FLICA): FasL or CHX and FasL, 8 hours (imhMSC) or 12 hours (prhMSC)
Experimental: MSCs are most susceptible to cell death via the Fas death pathway. […] Cells were also treated with a low concentration of the protein synthesis inhibitor cycloheximide (CHX) in addition to FasL. Cycloheximide, being a protein synthesis inhibitor, increases cell stress, imitating the starvation stress seen in vivo in a wound setting.
After preparation of coated surfaces and prior to seeding of MSC, neutralizing antibodies to the EGFL and FNL domains were added for 24 hours Immortalized hMSC were then seeded for 24 hours, kept treated or untreated with FasL for 8 hours, followed by a FLICA assay to test for caspase3 activation.
We next studied whether TNC contributes to survival of MSCs by sequestering FasL and prevention of FasL from binding its receptor Fas on MSC. We grew MSCs inside two cloning cylinders placed in wells of a 6-well dish, enclosing areas without any ECM, or with Collagen I and TNC, on which imhMSC were grown. One well had Collagen I and TNC coating surrounding the cloning cylinders, covered with media and FasL. The second well had only media with FasL surrounding the cloning cylinders, with no TNC.
The inhibitors were present during the entire 8 hours of FasL treatment, after which a FLICA assay was performed.

[2] = tested on: Erk; assay: immunofluorescence for phospho-Erk; format: cell-based, human; conditions: imhMSC, 0, 30 and 60 minutes
Experimental: We examined that of Erk Immortalized hMSC were plated on surfaces with Collagen I alone or Collagen I and TNC for 24 hours. After 24 hours, (considered 0 minute), immunofluorescence for phospho-Erk (green fluorescence) was tested either with or without the EGFR inhibitor PD153035.

[3] = tested on: EGFR; assay: immunofluorescence for phospho-EGFR and EEA1; format: cell-based, human
Experimental: Upon determining that TNC provided a survival effect on MSC in the presence of FasL, and that this mapped to the EGFL, we studied if Tenascin C was able to activate EGFR on the surface of MSC and if this activation was sustained. MSCs have low levels of EGFR, which may limit activation by the ultra-low affinity EGFL. In a number of studies, immortalized hMSC were plated on surfaces with Collagen I alone or Collagen I and TNC for 24 hours. After 24 hours, (considered 0 minute), immunofluorescence for phospho-EGFR (red fluorescence) and the early endosome marker EEA1 (green fluorescence) was done on these samples. […] Immortalized hMSC seeded on Collagen I were treated with EGF, the prototypal EGFR ligand, known to cause EGFR internalization for 15, 30 and 60 minutes prior to fixation, to induce phosphorylation of EGFR. At the same time points, immunofluorescence was done on cells grown on Collagen I and TNC.

[4] = tested on: imhMSC and prhMSC; assay: MSC proliferation on extracellular matrix coatings; format: cell-based, human; conditions: 96 hours post-seeding
Description: During wound healing, endogenous MSC proliferation and differentiation are temporally distinct events. […] We tested if the extracellular matrix or ECM factors had any influence on MSC proliferation.

[5] = tested on: MSC; assay: MSC differentiation on coated surfaces (Von Kossa staining, adipocyte formation); format: cell-based, human
Description: We then studied whether TNC by itself, in the absence of specific differentiation cues, promotes MSC differentiation. We examined osteoblast or adipose cell formation from MSC grown on TNC and Collagen (Col I), in the presence of either proliferation or differentiation media. […] The matrix mix of TNC and Collagen I also did it interfere with differentiation.

[6] = tested on: MSC; assay: inverted centrifugation assay of MSC adhesiveness on coated surfaces; format: cell-based, human; conditions: 2 hours post-seeding
Experimental: Tenascin-C or TNC may reduce the number of focal adhesions and decrease cell adhesiveness in several cell types. To test for MSC adhesiveness on TNC, an inverted centrifugation assay was performed 2 hours post-seeding MSC on […] and the number of cells attached after centrifugation was compared to number of cells attached on a similarly coated surface that had not undergone centrifugation. […] To increase adhesiveness of cells on TNC we coated mixed Collagen I, a matrix naturally occurring in the in vivo bone environment and one that promotes MSC attachment and spreading, in a 1:1 ratio with TNC for coating substrates. […] In a number of studies hereof, a combination of Collagen I and TNC was used to increase TNC adherence to cells.

[7] = tested on: MSC; assay: flow cytometric quantification of FITC/HLA+ cells, MSC survival in wound bed; format: in vivo, mouse; conditions: days 3, 7 and 21; WT and KO mice
Description: Male and Female FVB (Friend Virus B-Type) and C57BL/6 mice, between 7-9 weeks of age, were used in a number of studies. After shaving the hair on the back of the mice, 8 mm punch biopsies were created. Wounds were either left untreated or treated with commercially available NEW-SKIN® (a liquid bandage or wound protective barrier available from J&J of New Brunswick, N.J.), PEG-Polymer, PEG-Polymer+TNC, or PEG-Polymer+TNC−MSC. […]
Flow cytometric quantification of FITC/HLA+cells was used to detect MSC survival in the wound bed. […]
After shaving the hair on the back of the mice 8 mm punch biopsies were created. […] Animals were euthanized by CO2 inhalation and the wounds assessed. […] Each wound was measured and then removed from the animal, with unwounded skin taken from the contralateral dorsum as a control.
Flow Cytometry. Twelve-millimeter punch biopsies of the wound and 12-mm punch biopsies of unwounded regions were isolated for quantification of MSC engraftment in wounded skin at days 3, 7, 14, and 21. […] Flow cytometry was performed on an LSR II Cytometer (a flow cytometer system available from BD Biosciences of Franklin Lakes, N.J.) and subsequently analyzed using FOWJO® digital FACS software (available from Tree Star, Inc. of Ashland, Oreg.).

O=c1cc(N2CCOCC2)oc2c(-c3ccccc3)cccc12 [LY294002, reference compound]
toxic effect on MSC (caspase3 activation without FasL) [1]: did not have a toxic effect on cells

COc1cccc(-c2cc(=O)c3ccccc3o2)c1N [PD98059, reference compound]
toxic effect on MSC (caspase3 activation without FasL) [1]: did not have a toxic effect on cells
effect on survival advantage of TNC and Collagen I in the presence of FasL [1]: blocked the survival advantage

COc1cc2ncnc(Nc3cccc(Br)c3)c2cc1OC [PD153035, reference compound]
phospho-Erk activation [2]: reduced but not completely inhibited
toxic effect on MSC (caspase3 activation without FasL) [1]: did not have a toxic effect on cells
effect on survival advantage of TNC and Collagen I in the presence of FasL [1]: blocked the survival advantage

Collagen I: a matrix naturally occurring in the in vivo bone environment that promotes MSC attachment and spreading
phospho-Erk activation [2]: significantly less than that with TNC
cell death / caspase3 activation (FLICA) [1]: did not show protection
cell death / caspase3 activation (FLICA) ([1]; listed as Collagen I alone): showed caspase 3 activation
phospho-EGFR staining ([3]; imhMSC, 24 hours after plating (0 minute)): did not show phospho-EGFR staining
MSC proliferation relative to cell numbers initially plated [4]: promote both imhMSC and prhMSC proliferation
hydroxyapatite deposition (Von Kossa staining) ([5]; 30 days in proliferation media): neither Collagen I by itself nor TNC and Collagen I caused hydroxyapatite deposition

EGF: the prototypal EGFR ligand, known to cause EGFR internalization
phospho-EGFR staining over time ([3]; imhMSC, 15, 30 and 60 minutes): stained positive for phospho-EGFR after 15 minutes of treatment; also recorded: very little phospho-EGFR signal

TNC: the matrikine tenascin C, containing EGF-like and fibronectin like repeats
phospho-Erk activation [2]: activate phosho-Erk in MSC at 0, 30 and 60 minutes
MSC adhesiveness [6]: detach from surfaces after inverted centrifugation; also recorded: only half as adhesive as cells on Collagen I
cell death / caspase3 activation (FLICA) [1]: did not show caspase3 activation
sequestering or neutralizing of FasL ([1]; cloning cylinder experiment, imhMSC): neither sequestering nor neutralizing FasL
optimal TNC coating to promote MSC survival in the presence of FasL ([1]; dose response, TUNEL and FLICA staining): 1 Lg/cm2
MSC survival in wound bed over time [7]: survive more and longer
adipocyte formation ([5]; in the presence of adipogenic inducers): did not prevent adipocyte formation
osteogenic differentiation ([5]; in the presence of differentiation media): did not interfere with osteogenic differentiation
adipocyte formation ([5]; on its own, no inducers): did not promote adipocyte formation on its own
